From the supplement of paper PMC8741786
In brackets after ≈: the same amount, converted by molar mass.

Experiments:
Test in all cases: minimum inhibitory concentration (ETEST)
Neisseria bacilliformis = settings: isolate id (sample isolate): Co000780_5; population: general population; antibiotic use in previous 6 months: No
Description: (§1)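 Oropharyngeal Neisseria isolates from MSM and employees in Belgium were identified to species by MALDI-TOF MS. MICs of azithromycin, ceftriaxone and ciprofloxacin were determined by ETEST on GC agar after 24 h at 36.5 °C and 5-7% CO2, in mg/L. Values beyond the strip range are reported as >256 (azithromycin) or <0.016 (ceftriaxone); isolates that did not grow are NA.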

Neisseria cinerea = settings: population: general population, antibiotic use in previous 6 months: No
Description: as §1

Neisseria elongata = settings: population: general population, antibiotic use in previous 6 months: No
Description: as §1

Neisseria gonorrhoeae = settings: isolate id (sample isolate): 19113052_3; population: MSM; antibiotic use in previous 6 months: No
Description: as §1

Neisseria oralis = settings: population: general population, antibiotic use in previous 6 months: No
Description: as §1

[1] = system: Neisseria subflava/flavescens/perflava
Description: as §1

CC[C@H]1OC(=O)[C@H](C)[C@@H](O[C@H]2C[C@@](C)(OC)[C@@H](O)[C@H](C)O2)[C@H](C)[C@@H](O[C@@H]2O[C@H](C)C[C@H](N(C)C)[C@H]2O)[C@](C)(O)C[C@@H](C)CN(C)[C@H](C)[C@@H](O)[C@]1(C)O [azithromycin]
Settings | minimum inhibitory concentration [mg/L]
Neisseria bacilliformis | 2 (≈ 2.67 µM)
Neisseria gonorrhoeae | 0.125 (≈ 0.167 µM)

Settings | minimum inhibitory concentration [mg/L]
Neisseria cinerea, isolate id (sample isolate): Co000769_3 | 1 (≈ 1.34 µM)
Neisseria cinerea, isolate id (sample isolate): Co000776_4 | 24 (≈ 32 µM)
Neisseria cinerea, isolate id (sample isolate): Co000776_5 | 32 (≈ 42.7 µM)
Neisseria cinerea, isolate id (sample isolate): Co000782_1 | 2 (≈ 2.67 µM)
Neisseria elongata, isolate id (sample isolate): Co000767_3 | 0.5 (≈ 0.668 µM)
Neisseria elongata, isolate id (sample isolate): Co000780_1 | 0.75 (≈ 1 µM)
Neisseria elongata, isolate id (sample isolate): Co000783_4 | 0.38 (≈ 0.507 µM)
Neisseria oralis, isolate id (sample isolate): Co000761_7 | 2 (≈ 2.67 µM)
Neisseria oralis, isolate id (sample isolate): Co000763_1 | 1 (≈ 1.34 µM)
Neisseria oralis, isolate id (sample isolate): Co000766_2 | 1.5 (≈ 2 µM)
Neisseria oralis, isolate id (sample isolate): Co000770_1 | 2 (≈ 2.67 µM)
Neisseria oralis, isolate id (sample isolate): Co000774_1 | 3 (≈ 4.01 µM)
Neisseria oralis, isolate id (sample isolate): Co000776_1 | 4 (≈ 5.34 µM)
Neisseria oralis, isolate id (sample isolate): Co000776_1.1 | 3 (≈ 4.01 µM)
Neisseria oralis, isolate id (sample isolate): Co000779_2 | 4 (≈ 5.34 µM)
Neisseria oralis, isolate id (sample isolate): Co000790_5 | 2 (≈ 2.67 µM)

[1]
Settings | minimum inhibitory concentration [mg/L]
isolate id (sample isolate): 19041762_1, population: MSM, antibiotic use in previous 6 months: Yes | > 256
isolate id (sample isolate): 19041762_1.1, population: MSM, antibiotic use in previous 6 months: Yes | > 256
isolate id (sample isolate): 19041780_1, population: MSM, antibiotic use in previous 6 months: Yes | > 256
isolate id (sample isolate): 19042150_1, population: MSM, antibiotic use in previous 6 months: Yes | 64 (≈ 85.4 µM)
isolate id (sample isolate): 19042150_3, population: MSM, antibiotic use in previous 6 months: Yes | > 256
isolate id (sample isolate): 19042756_1, population: MSM, antibiotic use in previous 6 months: Yes | > 256
isolate id (sample isolate): 19042756_2, population: MSM, antibiotic use in previous 6 months: Yes | > 256
isolate id (sample isolate): 19043201_1.1, population: MSM, antibiotic use in previous 6 months: No | 96 (≈ 128 µM)
isolate id (sample isolate): 19043201_2.1, population: MSM, antibiotic use in previous 6 months: No | > 256
isolate id (sample isolate): 19043201_3, population: MSM, antibiotic use in previous 6 months: No | 96 (≈ 128 µM)
isolate id (sample isolate): 19043274_3, population: MSM, antibiotic use in previous 6 months: Yes | 128 (≈ 171 µM)
isolate id (sample isolate): 19050474_1, population: MSM, antibiotic use in previous 6 months: No | 8 (≈ 10.7 µM)
isolate id (sample isolate): 19050514_1, population: MSM, antibiotic use in previous 6 months: Yes | > 256
isolate id (sample isolate): 19050949_1, population: MSM, antibiotic use in previous 6 months: No | 3 (≈ 4.01 µM)
isolate id (sample isolate): 19050949_2, population: MSM, antibiotic use in previous 6 months: No | 4 (≈ 5.34 µM)
isolate id (sample isolate): 19050949_2.1, population: MSM, antibiotic use in previous 6 months: No | 4 (≈ 5.34 µM)
isolate id (sample isolate): 19051904_2, population: MSM, antibiotic use in previous 6 months: Yes | 2 (≈ 2.67 µM)
isolate id (sample isolate): 19051904_3, population: MSM, antibiotic use in previous 6 months: Yes | 1.5 (≈ 2 µM)
isolate id (sample isolate): 19052394_1, population: MSM, antibiotic use in previous 6 months: Yes | 2 (≈ 2.67 µM)
isolate id (sample isolate): 19052394_1.1, population: MSM, antibiotic use in previous 6 months: Yes | 1.5 (≈ 2 µM)
isolate id (sample isolate): 19060089_1, population: MSM, antibiotic use in previous 6 months: Yes | 8 (≈ 10.7 µM)
isolate id (sample isolate): 19062994_1, population: MSM, antibiotic use in previous 6 months: Yes | 2 (≈ 2.67 µM)
isolate id (sample isolate): Co000761_2, population: general population, antibiotic use in previous 6 months: No | 2 (≈ 2.67 µM)
isolate id (sample isolate): Co000761_3, population: general population, antibiotic use in previous 6 months: No | 4 (≈ 5.34 µM)
isolate id (sample isolate): Co000761_5, population: general population, antibiotic use in previous 6 months: No | 6 (≈ 8.01 µM)
isolate id (sample isolate): Co000761_6, population: general population, antibiotic use in previous 6 months: No | 3 (≈ 4.01 µM)
isolate id (sample isolate): Co000762_3, population: general population, antibiotic use in previous 6 months: No | 6 (≈ 8.01 µM)
isolate id (sample isolate): Co000762_4, population: general population, antibiotic use in previous 6 months: No | 4 (≈ 5.34 µM)
isolate id (sample isolate): Co000763_2, population: general population, antibiotic use in previous 6 months: No | 2 (≈ 2.67 µM)
isolate id (sample isolate): Co000764_1, population: general population, antibiotic use in previous 6 months: No | 8 (≈ 10.7 µM)
isolate id (sample isolate): Co000764_2, population: general population, antibiotic use in previous 6 months: No | 8 (≈ 10.7 µM)
isolate id (sample isolate): Co000765_2, population: general population, antibiotic use in previous 6 months: No | 3 (≈ 4.01 µM)
isolate id (sample isolate): Co000765_3, population: general population, antibiotic use in previous 6 months: No | 3 (≈ 4.01 µM)
isolate id (sample isolate): Co000765_4, population: general population, antibiotic use in previous 6 months: No | 3 (≈ 4.01 µM)
isolate id (sample isolate): Co000766_1, population: general population, antibiotic use in previous 6 months: No | 6 (≈ 8.01 µM)
isolate id (sample isolate): Co000766_3, population: general population, antibiotic use in previous 6 months: No | 1 (≈ 1.34 µM)
isolate id (sample isolate): Co000767_1, population: general population, antibiotic use in previous 6 months: No | 1 (≈ 1.34 µM)
isolate id (sample isolate): Co000767_2, population: general population, antibiotic use in previous 6 months: No | 6 (≈ 8.01 µM)
isolate id (sample isolate): Co000767_4, population: general population, antibiotic use in previous 6 months: No | 1.5 (≈ 2 µM)
isolate id (sample isolate): Co000767_5, population: general population, antibiotic use in previous 6 months: No | 1.5 (≈ 2 µM)
isolate id (sample isolate): Co000767_6, population: general population, antibiotic use in previous 6 months: No | 0.75 (≈ 1 µM)
